Experimental data as given in US11787781B2, “Inhibiting ataxia telangiectasia and RAD3-related protein (ATR)” (Celator Pharmaceuticals, Inc., priority 2016, dated 2023).

What was measured:
[1] = target: ATM(h) (Homo sapiens (Human), UniProt Q13315); assay: ATM activity, […] KINASEPROFILER; assay type: biochemical; settings: estimated IC50
Excerpt: Estimated IC50 values are as follows (obtained using […] KINASEPROFILER): […]

[2] = Loading of ATR inhibitors into TEA-SOS liposomes and liposome characterization; assay type: physicochemical; settings: for Loading efficiency (%) / Drug/lipid ratio after loading: TEA-SOS liposomes; for Loading efficiency (%): Compound 1 at ratio before loading 379; for Drug/lipid ratio after loading: input ratio before loading (Compound 1: 379); for Liposome size, (mean ± SD) nm: liposomes loaded with the ATR inhibitor
Protocol: Sodium sucrose octasulfate (equivalent weight 144.8) is a sodium salt of sucrose derivate in which all hydroxyl groups have formed sulfuric acid esters. Sixty gram of sucrose octasulfate (SOS) sodium salt were dissolved in 150 ml of di water, heated with shaking (swirling) of a 50° C. water bath. The solution was passed through a column packed with sulfonated polystyrene divinylbenzene copolymer cation exchange resin beads (Dowex 50Wx8-100-200 mesh, Dow Chemical Co.). […] The eluent was monitored using a conductivity detector. The SOS fraction was collected corresponding to conductivity peak and immediately titrated with neat triethylamine (TEA) solution to pH 6-6.5. The solution was analyzed for residual sodium by potentiometry using a sodium-sensitive electrode and for SOS concentration using a refractometer. The solution having residual sodium less than 0.25% was diluted with di water to final SOS concentration 1.1 M and then sterile-filtered using Millipore 0.22 μm Steri-Top filter.
Cholesterol (Chol) was purchased from Avanti Polar Lipids, Alabaster, Ala., USA, hydrogenated soy phosphocholine (HSPC) and methoxy-poly(ethylene glycol)-1,2-distearoyl-sn-glyceryl (PEG2000-DSG) were obtained from Lipoid GmbH, Ludwigshafen, Germany.
Chol, HSPC and PEG2000-DSG were co-dissolved in 100% ethanol (200-proof, Sigma cat #: 459828) at a molar ratio of 3:2:0.15 at 65° C. The solution of TEA-SOS (10 times the volume of added ethanol) was mixed with the lipid solution at 60-65° C. and stirred at this temperature until a homogeneous milky suspension of multilamellar vesicles was formed. This suspension was extruded 3 times through 5 stacked polycarbonate track-etched filters (Corning Nuclepore) with the pore size of 100 nm using argon pressure extruder (Lipex Biomembranes) at 60-65° C., and resulting unilamellar liposomes were quickly chilled in ice and then stored at 4-6° C. before use. Concentration of phospholipids was measured by phosphate assay and particle diameter was recorded on a Malvern Nanosizer.
Prior to drug loading, the TEA-SOS gradient was created by removing excess of un-trapped TEA-SOS using gel-chromatography (Sepharose CL-4B, Pharmacia). Osmolarity of liposomes was balanced using 50% dextrose solution. Final dextrose concentration was 15%.
ATR inhibitors were dissolved in 15% dextrose solutions in di water by titration with 1 M HCl and heating at 45° C. and then filtered with 0.2 micron NALGENE 13 mm Syringe Filters. Drug concentration in the solution was detected by HPLC. […]
The liposome-drug mixture was incubated with occasional agitation for 30 minutes at 65° C. The incubation mixture was quickly cooled down and incubated for 10 minutes at 0° C., then allowed to attain ambient temperature. Un-encapsulated drug was removed by gel chromatography on Sephadex G-25 (Amersham Pharmacia) eluted with HBS-6.5 buffer (5 mM 2-(4-(2-hydroxyethyl)-piperazino)-ethylsulfonic acid (HEPES), 144 mM NaCl, pH 6.5). Liposome fractions eluted in the void volume were combined, sterilized by 0.2 micron filtration, and stored at 4-6° C. before use. The liposomes were characterized by lipid concentration, drug concentration, and particle size (Table 2).

[3] = target: ATR/ATRIP(h) (Homo sapiens (Human), UniProt Q13535); assay: Eurofins ATR/ATRIP HTRF assay, p53 Ser15 phosphorylation; assay type: biochemical; design: key to Top / Bottom: % of DMSO positive control activity; settings: ATP 10 μM; for Hill: four parameter logistic fit; for Bottom / Top: four parameter logistic fit of % control activity
Protocol: An EC50 determination was conducted for the supplied set of compounds against the kinase ATR/ATRIP(h), using a linear enzyme concentration in the Eurofins ATR/ATRIP HTRF assay using GST tagged full length p53 as the substrate.
ATR/ATRIP phosphorylation of p53 on Ser15 was measured via formation of an energy transfer complex consisting of a Europium-labelled anti-phospho Ser15 p53 antibody and an anti-GST-d2 antibody. All data points were performed in duplicate with DMSO controls and EDTA blanks.
ATR/ATRIP(h) was pre-diluted in 25 mM HEPES pH 8.0, 0.01% Brij-35, 1% Glycerol, 5 mM DTT, 1 mg/mL BSA and assayed in 25 mM HEPES pH 8.0, 0.01% Brij-35, 1% Glycerol, 10 mM MnCl2 using 30 nM GST, cMyc p53-(hu,FL) as the substrate. The reaction was initiated with the addition of ATP to a final concentration of 10 μM.
The individual replicates were expressed in terms of the % of the DMSO positive control activity. The mean activity (% control) of each inhibitor concentration was plotted against the inhibitor concentration, and EC50 values were determined using […] PRISM.
The data expressed as % control activity were plotted against inhibitor concentration, and fitted to a four parameter logistic using […] PRISM. Graphs for each compound are shown alongside the data in the accompanying Excel report.

[4] = pKa; assay type: physicochemical; settings: method not stated
[5] = system: SUM149 cells; assay: Cell cycle stage profile, SUM149 cells; assay type: cell-based; settings: 24 hours after addition of SN38 and ATR inhibitor
[6] = system: total and phospho-ATR (S428), phospho-CHK1 (S317 and S345) in DMS-114 cells; assay: Western blot of total and phospho-ATR, phospho-CHK1 in DMS-114 cells; assay type: cell-based
Protocol: Whole cell protein lysates were generated after 1, 3, 6 and 24 hours using a 2% SDS containing cell lysis buffer and stored at −80° C. until all samples were collected and run together at the same time for the WesternBlot analysis. The following proteins and phosphoproteins of interest were detected by antibodies purchased from Cell Signaling Technology (see methods and materials part below): total and phospho-ATR (S428), phospho-CHK1 (S317 and S345), γH2AX, beta-actin.
All target and phospho-specific antibodies were purchased from Cell Signaling and/or Epitomics and were used at 1:1000 dilutions. A list of all antibodies is available in Table 6. Standard antibody based Western blot and immunohistochemistry protocols were used. Briefly, 2% SDS based cell lysis buffer was used to collect whole cell lysate for Western Blotting. Secondary antibodies and staining protocols were purchased and followed regarding LiCor Biosciences and/or BD Bioscience.
Cells were grown and treated in a 6 cm dish scale. To harvest cells, medium was removed and quickly replaced by ice cold PBS. PBS was then replaced with 250 μL of 2% SDS lysis buffer. After five minutes of incubation, the lysed cells were scraped off and loaded onto a cell lysate homogenizer microcentrifuge spin-column (QIAshredder, Qiagen, Cat.-Nr. 79656). The filtrate was then loaded onto a 0.2 μm centrifugal filter column (Nanosep MF 0.2_m, Pall, Cat.-Nr. ODM02C34). The lysates were then stored at −80° C.

[7] = system: NCI-H596 cells; assay: Cell number over time, NCI-H596 cells; assay type: cell-based; settings: 1 μM in combination with SN38 0.2 μM
[8] = system: MS-751 cells; assay: In vitro growth assay, MS-751 cells; assay type: cell-based; settings: in combination with SN38
[9] = system: NCI-H520 cells; assay: Cell number over time, NCI-H520 cells; assay type: cell-based; settings: 1 μM in combination with SN38 0.2 μM
[10] = system: U2OS cells; assay: Cell death and growth assay, U2OS cells; assay type: cell-based
Protocol: U20S and all other cells were grown in (RPMI) supplemented with 10% fetal bovine serum (FBS) and antibiotics. Imaging and time-lapse compatible NucLight red cell lines were generated as recommend by Essen Bioscience Inc. using lentiviral particles, infection and puromycin selection protocols.
The results were compared back to a prediction of cell growth and death with the combination of the two compounds (FIG. 18A).
In all cases, relative cell proliferation is reduced with the combinations compared to the drugs alone (FIG. 21B-C).

ATM(h), sequence (Q13315 whole entry): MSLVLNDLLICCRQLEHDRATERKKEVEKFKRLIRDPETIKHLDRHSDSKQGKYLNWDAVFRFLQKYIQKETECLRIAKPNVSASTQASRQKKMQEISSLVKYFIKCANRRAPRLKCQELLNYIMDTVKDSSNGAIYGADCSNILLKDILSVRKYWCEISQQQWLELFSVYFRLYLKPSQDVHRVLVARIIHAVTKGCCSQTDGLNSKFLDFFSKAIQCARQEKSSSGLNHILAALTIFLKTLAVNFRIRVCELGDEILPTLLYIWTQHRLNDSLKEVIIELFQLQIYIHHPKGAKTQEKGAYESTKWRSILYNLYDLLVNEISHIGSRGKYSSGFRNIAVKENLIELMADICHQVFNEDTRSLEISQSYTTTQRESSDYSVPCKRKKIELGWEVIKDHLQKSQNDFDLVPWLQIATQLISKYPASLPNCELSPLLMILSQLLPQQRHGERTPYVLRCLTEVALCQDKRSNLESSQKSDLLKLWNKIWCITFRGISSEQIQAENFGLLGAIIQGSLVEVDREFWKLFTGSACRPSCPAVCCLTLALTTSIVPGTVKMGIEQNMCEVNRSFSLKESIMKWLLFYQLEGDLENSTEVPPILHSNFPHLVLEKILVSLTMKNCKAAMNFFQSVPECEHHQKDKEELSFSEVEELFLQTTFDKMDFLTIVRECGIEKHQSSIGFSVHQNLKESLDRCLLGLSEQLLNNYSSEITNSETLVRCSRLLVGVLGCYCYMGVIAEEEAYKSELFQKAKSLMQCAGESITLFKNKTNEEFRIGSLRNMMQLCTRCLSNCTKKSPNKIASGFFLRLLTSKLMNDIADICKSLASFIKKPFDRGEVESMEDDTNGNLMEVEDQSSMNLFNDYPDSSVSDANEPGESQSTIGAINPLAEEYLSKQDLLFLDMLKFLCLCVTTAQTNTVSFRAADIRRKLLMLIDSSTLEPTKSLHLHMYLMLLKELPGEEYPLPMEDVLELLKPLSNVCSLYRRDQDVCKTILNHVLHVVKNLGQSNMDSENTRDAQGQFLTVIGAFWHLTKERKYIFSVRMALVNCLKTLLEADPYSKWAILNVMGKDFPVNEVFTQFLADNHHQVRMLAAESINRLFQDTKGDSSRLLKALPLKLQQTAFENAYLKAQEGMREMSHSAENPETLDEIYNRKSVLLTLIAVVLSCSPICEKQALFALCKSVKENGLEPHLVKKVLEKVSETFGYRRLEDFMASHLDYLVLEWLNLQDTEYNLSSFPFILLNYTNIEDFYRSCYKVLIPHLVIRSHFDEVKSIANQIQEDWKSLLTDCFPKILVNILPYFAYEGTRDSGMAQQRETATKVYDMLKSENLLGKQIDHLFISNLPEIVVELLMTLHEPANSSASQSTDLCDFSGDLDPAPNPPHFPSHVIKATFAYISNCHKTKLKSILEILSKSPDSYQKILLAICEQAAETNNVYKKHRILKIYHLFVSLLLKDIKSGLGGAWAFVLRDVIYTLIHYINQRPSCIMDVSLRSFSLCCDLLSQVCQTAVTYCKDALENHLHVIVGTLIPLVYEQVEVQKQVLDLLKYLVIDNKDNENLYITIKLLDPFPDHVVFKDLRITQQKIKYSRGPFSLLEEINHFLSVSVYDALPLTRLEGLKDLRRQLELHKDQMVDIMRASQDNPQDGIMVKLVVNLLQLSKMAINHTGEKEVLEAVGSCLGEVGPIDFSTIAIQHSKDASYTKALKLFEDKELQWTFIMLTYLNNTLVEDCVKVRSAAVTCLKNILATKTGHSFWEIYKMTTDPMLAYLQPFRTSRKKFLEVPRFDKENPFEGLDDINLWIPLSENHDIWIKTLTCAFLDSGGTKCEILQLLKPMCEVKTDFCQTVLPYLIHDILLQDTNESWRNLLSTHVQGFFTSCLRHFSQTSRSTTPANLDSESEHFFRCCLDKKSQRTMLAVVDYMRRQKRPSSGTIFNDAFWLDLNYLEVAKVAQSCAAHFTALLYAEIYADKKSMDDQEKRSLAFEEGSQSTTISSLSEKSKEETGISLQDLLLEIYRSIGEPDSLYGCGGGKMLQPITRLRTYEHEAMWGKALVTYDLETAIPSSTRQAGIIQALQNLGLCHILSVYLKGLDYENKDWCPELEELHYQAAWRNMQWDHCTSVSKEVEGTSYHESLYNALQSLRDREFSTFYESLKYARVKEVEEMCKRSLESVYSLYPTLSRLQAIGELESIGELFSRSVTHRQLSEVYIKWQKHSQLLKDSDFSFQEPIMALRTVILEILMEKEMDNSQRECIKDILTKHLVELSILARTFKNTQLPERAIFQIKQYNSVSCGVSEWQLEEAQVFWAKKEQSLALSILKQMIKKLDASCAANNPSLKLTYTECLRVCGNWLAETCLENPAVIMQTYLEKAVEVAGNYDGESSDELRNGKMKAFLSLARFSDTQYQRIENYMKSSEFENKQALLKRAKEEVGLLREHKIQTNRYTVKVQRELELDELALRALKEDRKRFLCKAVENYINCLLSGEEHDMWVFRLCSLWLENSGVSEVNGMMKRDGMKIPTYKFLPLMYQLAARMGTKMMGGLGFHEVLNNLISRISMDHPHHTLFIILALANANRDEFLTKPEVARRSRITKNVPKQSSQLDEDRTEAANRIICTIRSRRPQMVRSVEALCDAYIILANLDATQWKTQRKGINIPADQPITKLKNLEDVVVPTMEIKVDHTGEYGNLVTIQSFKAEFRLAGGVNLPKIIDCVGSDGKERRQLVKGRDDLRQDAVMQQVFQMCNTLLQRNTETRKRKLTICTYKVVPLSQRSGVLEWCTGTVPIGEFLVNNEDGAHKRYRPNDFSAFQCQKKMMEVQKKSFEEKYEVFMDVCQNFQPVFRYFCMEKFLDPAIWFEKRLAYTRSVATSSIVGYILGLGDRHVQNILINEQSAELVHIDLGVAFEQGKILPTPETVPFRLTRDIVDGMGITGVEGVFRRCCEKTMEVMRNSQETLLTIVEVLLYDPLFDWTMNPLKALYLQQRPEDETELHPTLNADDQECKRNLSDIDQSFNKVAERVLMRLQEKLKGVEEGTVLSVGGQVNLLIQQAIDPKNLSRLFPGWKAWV

Row | Compound | IC50 [1] | loading efficacy ([2]; Compound 1: at drug to lipid ratio higher than 400 g/mol) | Loading efficiency (%) [2] | Drug/lipid ratio after loading [2] | Drug/lipid ratio after loading (loadability) ([2]; drug/lipid ratio before loading 600-800) | Liposome size, (mean ± SD) nm [2] | EC50 [3] | Hill [3] | Bottom [3] | Top [3] | pKa [4] | cell cycle stage profile vs controls [5] | phosphorylation signal of CHK1 (S317 and S345) induced by Gemcitabine ([6]; ATR inhibitor 1 μM added to Gemcitabine 16 nM) | total and phospho-ATR signal ([6]; ATR inhibitor 1 μM, alone or with Gemcitabine 16 nM, up to 24 hrs) | cell numbers over time vs either agent in isolation [7] | cell number over time vs either compound alone [8] | cell numbers over time vs either agent in isolation [9] | cell numbers over time vs either agent in isolation ([10]; 1 μM in combination with SN38 0.2 μM) | cell death vs either compound alone ([10]; Compound A (1 μM) combined with Gemcitabine (0.04 μM)) | phospho-CHK1 (S317 and S345) signaling ([6]; Gemcitabine 16 nM alone, over 24 hrs)
1 | CN1CCN(CCS(=O)(=O)c2ccc(-c3cnc(N)c(C(=O)Nc4ccccc4)n3)cc2)CC1 [Compound 3, 3-amino-6-(4-((2-(4-methylpiperazin-1-yl)ethyl)sulfonyl)phenyl)-N-phenylpyrazine-2-carboxamide] | > 10000 nM | – | 97 ± 5% | 628 ± 6 | – | 120 ± 27 nm | 196 nM | −0.776 | −3 | 98 | 7.73 | – | – | – | – | – | – | – | – | –
2 | CNCc1ccc(-c2cc(-c3nc(-c4ccc(S(=O)(=O)C(C)C)cc4)cnc3N)on2)cc1 [Compound A] | 42 nM | – | – | – | – | 121 ± 26 nm | – | – | – | – | – | larger percentage of cells are arrested in G2 phase | abrogates the phosphorylation signal of CHK1 | strongly reduced | more effective at maintaining or reducing cell numbers over time | reduction in cell number over time | more effective at maintaining or reducing cell numbers over time | more effective at maintaining or reducing cell numbers over time | better at promoting cell death | –
3 | Nc1ccn([C@@H]2O[C@H](CO)[C@@H](O)C2(F)F)c(=O)n1 [Gemcitabine] | – | – | – | – | – | – | – | – | – | – | – | – | – | – | – | – | – | – | – | significantly increased

Further lines, with some results ahead:

Row | IC50 [1] | loading efficacy ([2]; Compound 1: at drug to lipid ratio higher than 400 g/mol) | Loading efficiency (%) [2] | Drug/lipid ratio after loading [2] | Drug/lipid ratio after loading (loadability) ([2]; drug/lipid ratio before loading 600-800) | Liposome size, (mean ± SD) nm [2] | EC50 [3] | Hill [3] | Bottom [3] | Top [3] | pKa [4] | Compound | cell cycle stage profile vs controls [5] | phosphorylation signal of CHK1 (S317 and S345) induced by Gemcitabine ([6]; ATR inhibitor 1 μM added to Gemcitabine 16 nM) | total and phospho-ATR signal ([6]; ATR inhibitor 1 μM, alone or with Gemcitabine 16 nM, up to 24 hrs) | cell numbers over time vs either agent in isolation [7] | cell number over time vs either compound alone [8] | cell numbers over time vs either agent in isolation [9] | cell numbers over time vs either agent in isolation ([10]; 1 μM in combination with SN38 0.2 μM) | cell death vs either compound alone ([10]; Compound A (1 μM) combined with Gemcitabine (0.04 μM)) | phospho-CHK1 (S317 and S345) signaling ([6]; Gemcitabine 16 nM alone, over 24 hrs)
4 | 3860 nM | formed aggregates | 98% | 369 | Not loadable. Formed aggregates | 122 ± 24 nm | 49.6 nM | −0.772 | −1 | 95 | 7.04 | CC(CN(C)C)S(=O)(=O)c1ccc(-c2cnc(N)c(C(=O)Nc3ccccc3)n2)cc1 (stereo not shown) [Compound 1, 3-amino-6-(4-((1-(dimethylamino)propan-2-yl)sulfonyl)phenyl)-N-phenylpyrazine-2-carboxamide] | – | – | – | – | – | – | – | – | –
5 | 4820 nM | – | 100 ± 5% | 639 ± 22 | – | 130 ± 34 nm | 140 nM | −0.911 | 1 | 94 | 7.46 | CCN(CC)CCS(=O)(=O)c1ccc(-c2cnc(N)c(C(=O)Nc3ccccc3)n2)cc1 [Compound 2, 3-amino-6-(4-((2-(diethylamino)ethyl)sulfonyl)phenyl)-N phenylpyrazine-2-carboxamide] | – | – | – | – | – | – | – | – | –
6 | 6870 nM | – | – | – | – | – | 353 nM | – | – | – | 8.36 | CN(C)CCNS(=O)(=O)c1ccc(-c2cnc(N)c(C(=O)Nc3ccccc3)n2)cc1 [Compound 4, 3-amino-6-(4-(((2-(dimethylamino)ethyl)-λ^2-azanyl)sulfonyl)phenyl)-N-phenylpyrazine-2-carboxamide] | – | – | – | – | – | – | – | – | –
7 | > 10000 nM | – | 74 ± 0.3% | 550 ± 64 | – | 119 ± 28 nm | 471 nM | −0.768 | −2 | 101 | 9.81 | CCN(CC)C1CCN(CCS(=O)(=O)c2ccc(-c3cnc(N)c(C(=O)Nc4ccccc4)n3)cc2)CC1 [Compound 6, 3-amino-6-(4-((2-(4-(diethylamino)piperidin-1 yl)ethyl)sulfonyl)phenyl)-N-phenylpyrazine-2-carboxamide] | – | – | – | – | – | – | – | – | –
